# According to patent US11986506B2, “Dietary supplements for inhibiting PDE5 and increasing cGMP levels” (LAILA NUTRACEUTICALS, priority 2017, dated 2024):
# Counter-ions that a name gives are not always drawn.
# Key:
# male rats = assay: Stimulation of sexual behaviour in male rats (pre-copulatory and copulatory counts over 30 minutes); assay type: in vivo, Sprague Dawley rats; settings: 10 mg/kg oral
# Procedure: The extracts of the current invention were then evaluated for their efficacy in vivo to stimulate sexual behavior in male rats. Briefly, healthy Sprague Dawley rats were acclimatized and randomized into various treatment groups (G1 to G6) as summarized in table 5. These animals were introduced to mating with female counterparts, which were previously treated with 100 μg/rat of estradiol benzoate and 1 mg/rat of progesterone at approximately 48 hours and 4 hours respectively prior to mating. […] The scored test parameters include frequency of licking, anogenital sniffing, climbing, genital grooming, mounting and intromission.
# Separately, a set of 42 healthy female rats were selected and each of them were treated with single dose of 100 μg of estradiol benzoate and 1 mg of progesterone at approximately 48 hours and 4 hours respectively prior to introduction to mating.
# One hour after test substance administration, each male rat was allowed to mate with a female rat in oestrus phase. Male sexual behaviour was measured for a period of 30 minutes with the aid of video recording. The scored test parameters include frequency of licking, anogenital sniffing, climbing, genital grooming, mounting, intromission and the results are summarized in tables 6 and 7, and depicted in FIG. 1.
# cyclic GMP = assay: Plasma cyclic GMP estimation by ELISA after mating period; assay type: in vivo, Sprague Dawley rats; settings: 10 mg/kg oral, plasma after 30 minutes mating period
# Procedure: After 30 minutes of mating period, blood sample were collected from all animals, plasma separated and subjected to cyclic-GMP estimation using cyclic GMP ELISA Kit supplied by Cayman (Cat No 581022) as per the procedure provided by the manufacturer. The plasma cyclic GMP modulation data is summarized in Table 8 and depicted in FIG. 2.
# After 30 minutes of mating period, blood sample was collected from each animal, plasma separated and the cyclic-GMP content was estimated using cyclic GMP ELISA Kit supplied by Cayman (Cat No 581022) as per the procedure provided by the manufacturer.
structure (smiles),measurement,setting,value
CCCc1nn(C)c2c(=O)[nH]c(-c3cc(S(=O)(=O)N4CCN(C)CC4)ccc3OCC)nc12 [Sildenafil citrate],Climbing count Mean ± SE,male rats,13.50 ± 2.96
same,Genital grooming count Mean ± SE,male rats,15.33 ± 9.20
same,Intromission frequency Mean ± SE,male rats,3.67 ± 2.55
same,Mounting count Mean ± SE,male rats,5.50 ± 2.43
same,Sniffing count Mean ± SE,male rats,25.83 ± 8.55
same,Licking count Mean ± SE,"male rats; 1 hr before mating, 30 minutes",14.83 ± 11.32
same,Cyclic GMP levels (plasma),cyclic GMP,18.79 ± 1.65 pmol/mL
same,Cyclic GMP levels (plasma),cyclic GMP; listed as sildenafil citrate,18.79 pmol/mL
